Test results published in article PMC6642116, “Structural and functional analyses of hepatitis B virus X protein BH3-like domain and Bcl-xL interaction” (Nature Communications, 2019).
Like-named read-outs stand apart in the source and are kept apart here. Residues, ends and D or L forms follow the SMILES beside them.

How the values were obtained:
Bcl-xL = biological target: T1, Bcl-xL (Homo sapiens, UniProt Q07817, DEL27-82); experiment: Isothermal titration calorimetry of peptides with Bcl-xL; type: binding; conditions: ITC, 25 °C, peptide 800 μM
T1 construct: 6xHis-SUMO (N, cleaved yes); made in house; host or cells: Escherichia coli BL21(DE3)
Text: The codon-optimized DNAs encoding Bcl-xLΔTM (the flexible loop, residues 27–82, and the transmembrane domain, residues, 197–233, are deleted, total […], named as Bcl-xL thereafter) was ordered from Genewiz (www.genewiz.com). The recombinant Bcl-xL with N-terminal SUMO-fused 6× His tag was generated by the insertion of the PCR products into pETSUMO vector (Invitrogen; www.thermofisher.com) and verified by sequencing. Recombinant proteins were expressed in Escherichia coli (BL21/DE3) strain overnight at 20 °C and proteins were induced by 0.4 mM isopropyl β-D-thiogalactoside. Cells were harvested by centrifugation and the pellets were re-suspended and passed through a cell disruptor (www.avestin.com) three times. After ultracentrifugation at 40,000 rpm for 1 h, the supernatant for His-tagged recombinant proteins were purified through Ni^2+ affinity column, cleaved by Ulp-1, followed by HiLoad Superdex S-75 26/60 column (GE Healthcare). The purified proteins were dialyzed against stabilization buffer containing 20 mM Tris-HCl (pH 7.0) and 100 mM NaCl and concentrated to 10–15 mg/ml in a Centriprep-30 (Amicon) for subsequent crystallization and biochemical analysis.
Microcalorimetry was used for all measurements. Bcl-xL protein was prepared at a final concentration of 10 μM in a buffer containing 25 mM Tris-HCl (pH 8.0). The ABT-263 was dissolved in the same buffer to a final concentration of 500 μM, while the peptides were dissolved to a final concentration of 800 μM. All experiments were carried out at 25 °C. Data were analyzed using the software Origin (OriginLab).

HepG2-NTCP cells [1] = experiment: Cell viability (CCK8 assay) of HBV-infected HepG2-NTCP cells; type: cell-based; design: Cell viability: unit not given here; conditions: for Cell viability: day 8 after HBV infection
Protocol: Fig. 6 The HBx-aa118–127 peptide, but not ABT-263, inhibits HBV replication and transcription in HepG2.2.15 cells. a HepG2.2.15 cells were treated with 125, 250, 500, and 1000 nM of ABT-263 for 2 days. Cytoplasmic HBV viral particles were isolated and the viral DNA replication intermediates were quantified (Methods). The results represent the fold change of the replicative intermediates in HepG2.2.15 cells from the indicated treatments, compared with those without treatment. b HepG2.2.15 cells were treated with the indicated concentrations of ABT-263 for 2 days. The lysate was analyzed by immunoblotting using antibodies to caspase-3 (CASP3) and GAPDH (glyceraldehyde 3-phosphate dehydrogenase). c, d The HBx-aa113–135, HBx-aa118–127, or the control peptides were delivered into HepG2.2.15 cells using PEP-1 nanoparticles (Methods). The levels of HBV DNA (c) and the levels of HBV S-antigen (HBsAg) expression (d) in culture medium collected from HepG2.2.15 cells were measured (Methods). The results are shown as fold change compared to that of the control peptide. e–g HepG2-NTCP cells were transfected with HBx118–127 peptide with concentration of […], and 50 μg/ml or unrelated control peptide during HBV infection (multiplicity of infection (MOI) = 200), respectively. e HBV e-antigen (HBeAg), f HBV DNA, and g cell viability were measured at day 8 after HBV infection. Data shown represent mean ± SD. Significance is indicated on the top. Not significant (ns): *P < 0.05, **P < 0.01; two-tailed unpaired t tests (n = 3 biologically independent samples). Source data are provided as a Source Data file
HBx-aa118-127 peptide treatment.
obvious cytotoxicity at concentrations between 12.5-200 µg/mL (Fig. 6g). Taken together, […]

HepG2-NTCP cells [2] = experiment: as above; type: cell-based; design: unit not given here; conditions: CCK8, 200 µg/mL, day 8 after HBV infection
[3] = Bcl-xL 10 μM in 25 mM Tris-HCl (pH 8.0), read-out: dissociation constant

## CC[C@H](C)[C@H](NC(=O)[C@H](CCC(=O)O)NC(=O)[C@H](CCC(=O)O)NC(=O)CNC(=O)[C@H](CC(C)C)NC(=O)[C@H](CCC(=O)O)NC(=O)[C@H](CCC(=O)O)NC(=O)[C@H](Cc1c[nH]c2ccccc12)NC(=O)[C@H](CC(=O)O)NC(=O)[C@H](CCCCN)NC(=O)[C@H](Cc1ccccc1)NC(=O)[C@@H](NC(=O)[C@H](CS)NC(=O)[C@H](CC(=O)O)NC(=O)[C@@H](N)CCCCN)C(C)C)C(=O)N[C@@H](CCCNC(=N)N)C(=O)N[C@@H](CC(C)C)C(=O)N[C@@H](CCCCN)C(=O)N[C@H](C(=O)N[C@@H](Cc1ccccc1)C(=O)N[C@H](C(=O)N[C@@H](CC(C)C)C(=O)NCC(=O)O)C(C)C)C(C)C [HBx-aa113–135]
Bcl-xL; [3]
  Kd: 26.5 ± 13.7 µM

## CC[C@H](C)[C@H](NC(=O)[C@H](CCC(=O)O)NC(=O)[C@H](CCC(=O)O)NC(=O)CNC(=O)[C@H](CC(C)C)NC(=O)[C@H](CCC(=O)O)NC(=O)[C@H](CCC(=O)O)NC(=O)[C@H](Cc1c[nH]c2ccccc12)NC(=O)[C@H](CC(=O)O)NC(=O)[C@@H](N)CCCCN)C(=O)O [HBx-aa118–127] (H-KDWEELGEEI-OH)
Bcl-xL; [3]
  Kd: 10 ± 2.95 µM
Bcl-xL; Bcl-xL 10 μM presaturated with ABT-263, 25 mM Tris-HCl (pH 8.0), read-out: dissociation constant, Bcl-xL presaturated with ABT-263
  Kd: 21 ± 4.05 µM
HepG2-NTCP cells [1]; CCK8, 12.5 µg/mL, replicate 1
  Cell viability: 94.534
HepG2-NTCP cells [1]; CCK8, 12.5 µg/mL, replicate 2
  Cell viability: 96.726
HepG2-NTCP cells [1]; CCK8, 12.5 µg/mL, replicate 3
  Cell viability: 98.429
HepG2-NTCP cells [1]; CCK8, 50 µg/mL, replicate 1
  Cell viability: 92.904
HepG2-NTCP cells [1]; CCK8, 50 µg/mL, replicate 2
  Cell viability: 96.191
HepG2-NTCP cells [1]; CCK8, 50 µg/mL, replicate 3
  Cell viability: 97.303
HepG2-NTCP cells [1]; HepG2-NTCP, 12.5, 50, and 200 µg/ml
  cytotoxicity (in words): no obvious cytotoxicity
HepG2-NTCP cells [2]; replicate 1
  Cell viability: 96.104
HepG2-NTCP cells [2]; replicate 2
  Cell viability: 101.260
HepG2-NTCP cells [2]; replicate 3
  Cell viability: 101.966
